{"source": "ChEMBL document CHEMBL1201862", "about": "“PubChem BioAssay data set” (2004)", "test_in_all_cases": "inhibition of tumour cell growth, NCI panel, 48 h", "key": {"COLO 205": {"system": "COLO 205"}, "SNB-78": {"system": "SNB-78"}, "IGROV-1": {"system": "IGROV-1"}, "BT-549": {"system": "BT-549"}, "UACC-62": {"system": "UACC-62"}, "UO-31": {"system": "UO-31"}, "RPMI-8226": {"system": "RPMI-8226"}, "EKVX": {"system": "EKVX"}, "SN12C": {"system": "SN12C"}, "M14": {"system": "M14"}, "Hs-578T": {"system": "Hs-578T"}, "LOX IMVI": {"system": "LOX IMVI"}, "OVCAR-3": {"system": "OVCAR-3"}, "SK-MEL-5": {"system": "SK-MEL-5"}, "KM12": {"system": "KM12"}, "SK-MEL-28": {"system": "SK-MEL-28"}, "PC-3": {"system": "PC-3"}, "CAKI-1": {"system": "CAKI-1"}, "DLD-1": {"system": "DLD-1"}, "DMS-114": {"system": "DMS-114"}, "HL-60": {"system": "HL-60"}, "DU-145": {"system": "DU-145"}, "MOLT-4": {"system": "MOLT-4"}, "TK-10": {"system": "TK-10"}, "T47D": {"system": "T47D"}, "OVCAR-8": {"system": "OVCAR-8"}, "NCI-H460": {"system": "NCI-H460"}, "SF-295": {"system": "SF-295"}, "SK-OV-3": {"system": "SK-OV-3"}, "HCT-116": {"system": "HCT-116"}, "K562": {"system": "K562"}, "U-251": {"system": "U-251"}, "MDA-MB-231": {"system": "MDA-MB-231"}, "NCI-H522": {"system": "NCI-H522"}, "UACC-257": {"system": "UACC-257"}, "A549": {"system": "A549"}, "OVCAR-5": {"system": "OVCAR-5"}, "NCI-H226": {"system": "NCI-H226"}, "RXF 393": {"system": "RXF 393"}, "XF498": {"system": "XF498"}, "SR": {"system": "SR"}, "HT-29": {"system": "HT-29"}, "HOP-92": {"system": "HOP-92"}, "LXFL 529": {"system": "LXFL 529"}, "OVCAR-4": {"system": "OVCAR-4"}, "NCI-H23": {"system": "NCI-H23"}, "KM-20L2": {"system": "KM-20L2"}, "M19-MEL": {"system": "M19-MEL"}, "MDA-N": {"system": "MDA-N"}, "SK-MEL-2": {"system": "SK-MEL-2"}, "HOP-18": {"system": "HOP-18"}, "DMS-273": {"system": "DMS-273"}, "SF-268": {"system": "SF-268"}, "Malme-3M": {"system": "Malme-3M"}, "MDA-MB-435": {"system": "MDA-MB-435"}, "786-0": {"system": "786-0"}, "RXF 631": {"system": "RXF 631"}, "HCC 2998": {"system": "HCC 2998"}, "SNB-75": {"system": "SNB-75"}, "SF-539": {"system": "SF-539"}, "HCT-15": {"system": "HCT-15"}, "SW-620": {"system": "SW-620"}, "HOP-62": {"system": "HOP-62"}, "CCRF-CEM": {"system": "CCRF-CEM"}, "ACHN": {"system": "ACHN"}, "A498": {"system": "A498"}, "SNB-19": {"system": "SNB-19"}}, "note": "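Where inhibition never reached the appropriate level, the endpoint shown equals the highest concentration tested. Otherwise, values were interpolated linearly from a five-concentration, 48-hour dose response in 96-well plates. GI50: concentration for 50% inhibition of growth.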 Calls of active or inactive are those of the source. Cut-off read from the data, not from the text of the source: active = GI50 up to about 1.1 µM and inactive = higher."}
{"smiles": "Cc1cc(NCCCCCCCNc2cc(C)nc3cc([N+](=O)[O-])ccc23)c2ccc([N+](=O)[O-])cc2n1", "values": [{"measurement": "GI50", "setting": "COLO 205", "value": "9.23 µM (inactive)"}, {"measurement": "GI50", "setting": "SNB-78", "value": "15.9 µM (inactive)"}, {"measurement": "GI50", "setting": "IGROV-1", "value": "9.44 µM (inactive)"}, {"measurement": "GI50", "setting": "BT-549", "value": "20 µM (inactive)"}, {"measurement": "GI50", "setting": "UACC-62", "value": "16.6 µM (inactive)"}, {"measurement": "GI50", "setting": "UO-31", "value": "13.9 µM (inactive)"}, {"measurement": "GI50", "setting": "RPMI-8226", "value": "1.87 µM (inactive)"}, {"measurement": "GI50", "setting": "EKVX", "value": "15.2 µM (inactive)"}, {"measurement": "GI50", "setting": "SN12C", "value": "4 µM (inactive)"}, {"measurement": "GI50", "setting": "M14", "value": "10.7 µM (inactive)"}, {"measurement": "GI50", "setting": "Hs-578T", "value": "1.86 µM (inactive)"}, {"measurement": "GI50", "setting": "LOX IMVI", "value": "2 µM (inactive)"}, {"measurement": "GI50", "setting": "OVCAR-3", "value": "4.38 µM (inactive)"}, {"measurement": "GI50", "setting": "SK-MEL-5", "value": "6.43 µM (inactive)"}, {"measurement": "GI50", "setting": "KM12", "value": "1.85 µM (inactive)"}, {"measurement": "GI50", "setting": "SK-MEL-28", "value": "4.34 µM (inactive)"}, {"measurement": "GI50", "setting": "PC-3", "value": "13.5 µM (inactive)"}, {"measurement": "GI50", "setting": "CAKI-1", "value": "23.7 µM (inactive)"}, {"measurement": "GI50", "setting": "DLD-1", "value": "1.82 µM (inactive)"}, {"measurement": "GI50", "setting": "DMS-114", "value": "1.38 µM (inactive)"}, {"measurement": "GI50", "setting": "HL-60", "value": "0.451 µM (active)"}, {"measurement": "GI50", "setting": "DU-145", "value": "3.08 µM (inactive)"}, {"measurement": "GI50", "setting": "MOLT-4", "value": "1.9 µM (inactive)"}, {"measurement": "GI50", "setting": "TK-10", "value": "17.7 µM (inactive)"}, {"measurement": "GI50", "setting": "T47D", "value": "3.52 µM (inactive)"}, {"measurement": "GI50", "setting": "OVCAR-8", "value": "1.87 µM (inactive)"}, {"measurement": "GI50", "setting": "NCI-H460", "value": "2.04 µM (inactive)"}, {"measurement": "GI50", "setting": "SF-295", "value": "5.9 µM (inactive)"}, {"measurement": "GI50", "setting": "SK-OV-3", "value": "24.9 µM (inactive)"}, {"measurement": "GI50", "setting": "HCT-116", "value": "1.69 µM (inactive)"}, {"measurement": "GI50", "setting": "K562", "value": "1.28 µM (inactive)"}, {"measurement": "GI50", "setting": "U-251", "value": "4.28 µM (inactive)"}, {"measurement": "GI50", "setting": "MDA-MB-231", "value": "2.47 µM (inactive)"}, {"measurement": "GI50", "setting": "NCI-H522", "value": "1.61 µM (inactive)"}, {"measurement": "GI50", "setting": "UACC-257", "value": "15.1 µM (inactive)"}, {"measurement": "GI50", "setting": "A549", "value": "3.69 µM (inactive)"}, {"measurement": "GI50", "setting": "OVCAR-5", "value": "15.6 µM (inactive)"}, {"measurement": "GI50", "setting": "NCI-H226", "value": "18 µM (inactive)"}, {"measurement": "GI50", "setting": "RXF 393", "value": "8.18 µM (inactive)"}, {"measurement": "GI50", "setting": "XF498", "value": "13.7 µM (inactive)"}, {"measurement": "GI50", "setting": "SR", "value": "1.53 µM (inactive)"}, {"measurement": "GI50", "setting": "HT-29", "value": "2.53 µM (inactive)"}, {"measurement": "GI50", "setting": "HOP-92", "value": "16.5 µM (inactive)"}, {"measurement": "GI50", "setting": "LXFL 529", "value": "1.56 µM (inactive)"}, {"measurement": "GI50", "setting": "OVCAR-4", "value": "2 µM (inactive)"}, {"measurement": "GI50", "setting": "NCI-H23", "value": "5.18 µM (inactive)"}, {"measurement": "GI50", "setting": "KM-20L2", "value": "10.8 µM (inactive)"}, {"measurement": "GI50", "setting": "M19-MEL", "value": "12.4 µM (inactive)"}, {"measurement": "GI50", "setting": "MDA-N", "value": "1.78 µM (inactive)"}, {"measurement": "GI50", "setting": "SK-MEL-2", "value": "24.7 µM (inactive)"}, {"measurement": "GI50", "setting": "HOP-18", "value": "17.3 µM (inactive)"}, {"measurement": "GI50", "setting": "DMS-273", "value": "4.29 µM (inactive)"}, {"measurement": "GI50", "setting": "SF-268", "value": "2.4 µM (inactive)"}, {"measurement": "GI50", "setting": "Malme-3M", "value": "29.6 µM (inactive)"}, {"measurement": "GI50", "setting": "MDA-MB-435", "value": "11.7 µM (inactive)"}, {"measurement": "GI50", "setting": "786-0", "value": "4.8 µM (inactive)"}, {"measurement": "GI50", "setting": "RXF 631", "value": "7.93 µM (inactive)"}, {"measurement": "GI50", "setting": "HCC 2998", "value": "11.1 µM (inactive)"}, {"measurement": "GI50", "setting": "SNB-75", "value": "11.2 µM (inactive)"}, {"measurement": "GI50", "setting": "SF-539", "value": "8.63 µM (inactive)"}, {"measurement": "GI50", "setting": "HCT-15", "value": 2.55, "unit": "µM"}, {"measurement": "GI50", "setting": "SW-620", "value": "2.1 µM (inactive)"}, {"measurement": "GI50", "setting": "HOP-62", "value": "20.5 µM (inactive)"}, {"measurement": "GI50", "setting": "CCRF-CEM", "value": "2.04 µM (inactive)"}, {"measurement": "GI50", "setting": "ACHN", "value": "12.7 µM (inactive)"}, {"measurement": "GI50", "setting": "A498", "value": "10.8 µM (inactive)"}, {"measurement": "GI50", "setting": "SNB-19", "value": "10.3 µM (inactive)"}]}
